Test results reported in patent US20260297092A1, “PYRAZOLOPYRIMIDINE DERIVATIVES AS INHIBITORS OF NLRP3” (Takeda Pharmaceutical Company Limited, priority 2023, published 2026).

Tests used:
[1] = test system: NLRP3 inflammasome (IL-1β production in THP-1 cells); assay: IL-1β TR-FRET Assay (percentage of inhibition at 300 nM, 6 μM or 10 μM); format: cell-based, human; details: Homo sapiens, LPS priming, ATP activation; for inhibition at 0.3 µM: THP-1, 300 nM, read-out: IL-1β inhibitory rate at 300 nM (%); for inhibition at 6 µM: THP-1, 6 μM, read-out: IL-1β inhibitory rate at 6 μM (%)
How it was run: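 THP-1 cells were differentiated with 25 ng/mL IFN-γ for 24 h, primed with 50 ng/mL LPS in serum-free medium for 24 h, then given compound for 30 min before 20 mM ATP for 2 h. Supernatant IL-1β was measured by HTRF after 16-24 h at room temperature. Inhibition was normalized between DMSO (high) and 3 μM MCC-950 (low).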

[2] = test system: TNF-α (NF-κB pathway, THP-1 cells); assay: TNF-α Assay (IC50); format: cell-based, human; details: Homo sapiens, 600 ng/mL LPS, 3 hours
How it was run: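 THP-1 cells differentiated to macrophages with 25 ng/mL IFN for 24 h, plated 40,000/well in serum-free medium, preincubated with compounds 30 min at 37 °C, then stimulated with 600 ng/mL LPS for 3 h. Supernatant TNF-α measured by ELISA; IC50 from four-parameter logistic fit, 100% inhibition defined by TPCA-1.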

SMILES | inhibition at 0.3 µM [1] | IC50 [2] | inhibition at 10 µM ([1]; THP-1, 10 μM, read-out: IL-1β inhibitory rate at 10 μM (%)) | inhibition at 6 µM [1]
COCCOc1nc2nn(-c3c(C)cc(Br)cc3C)cc2c(=O)[nH]1 [Example 175, 2-(4-bromo-2,6-dimethylphenyl)-6-(2-methoxyethoxy)-2,5-dihydro-4H-pyrazolo[3,4-d]pyrimidin-4-one] | 112% | > 30 µM | – | –
CCOc1nc2nn(-c3ccc(C)cc3OCC(F)F)cc2c(=O)[nH]1 [Example 98, 2-[2-(2,2-difluoroethoxy)-4-methylphenyl]-6-ethoxy-2,5-dihydro-4H-pyrazolo[3,4-d]pyrimidin-4-one] | 44% | > 30 µM | – | –
C=Cc1cc(C)c(-n2cc3c(=O)[nH]c(OCC)nc3n2)c(F)c1 [Example 120, 2-(4-ethenyl-2-fluoro-6-methylphenyl)-6-ethoxy-2,5-dihydro-4H-pyrazolo[3,4-d]pyrimidin-4-one] | 101% | > 30 µM | – | –
CCOc1nc2nn(-c3ncc(Br)cc3C(F)(F)F)cc2c(=O)[nH]1 [Example 148, 2-[5-bromo-3-(trifluoromethyl)pyridin-2-yl]-6-ethoxy-2,5-dihydro-4H-pyrazolo[3,4-d]pyrimidin-4-one] | 96% | > 30 µM | – | –
Cc1cc(C)c(-n2cc3c(=O)[nH]c(OCCCN(C)C)nc3n2)c(O)c1 [Example 115, 6-[3-(dimethylamino)propoxy]-2-(2-hydroxy-4,6-dimethylphenyl)-2,5-dihydro-4H-pyrazolo[3,4-d]pyrimidin-4-one] | 99% | > 30 µM | – | –
COC(C)c1nc2nn(-c3c(C)cc(C)cc3O)cc2c(=O)[nH]1 (stereo not drawn) [Example 52, 2-(2-hydroxy-4,6-dimethylphenyl)-6-(1-methoxyethyl)-2,5-dihydro-4H-pyrazolo[3,4-d]pyrimidin-4-one] | 95% | > 30 µM | – | –
CCOc1nc2nn(-c3c(F)cc(C)c(F)c3C)cc2c(=O)[nH]1 [Example 92, 2-(3,6-difluoro-2,4-dimethylphenyl)-6-ethoxy-2,5-dihydro-4H-pyrazolo[3,4-d]pyrimidin-4-one] | 82% | > 30 µM | – | –
Cc1cc(C)c(-n2cc3c(=O)[nH]c(C4(C)CC4)nc3n2)c(O)c1 [Example 25, 2-(2-hydroxy-4,6-dimethylphenyl)-6-(1-methylcyclopropyl)-2,5-dihydro-4H-pyrazolo[3,4-d]pyrimidin-4-one] | 100% | > 30 µM | – | –
CCOc1nc2nn(-c3ccc(C)cc3O)c(Cl)c2c(=O)[nH]1 [Example 31, 3-chloro-6-ethoxy-2-(2-hydroxy-4-methylphenyl)-2,5-dihydro-4H-pyrazolo[3,4-d]pyrimidin-4-one] | 99% | > 30 µM | – | –
CCOc1nc2nn(-c3c(C)ccc(C)c3F)cc2c(=O)[nH]1 [Example 101, 6-ethoxy-2-(2-fluoro-3,6-dimethylphenyl)-2,5-dihydro-4H-pyrazolo[3,4-d]pyrimidin-4-one] | – | > 30 µM | 95% | –
CCc1cc(C2CC2)cc(C)c1-n1cc2c(=O)[nH]c(COC(F)F)nc2n1 [Example 291, 2-(4-cyclopropyl-2-ethyl-6-methylphenyl)-6-[(difluoromethoxy)methyl]-2,5-dihydro-4H-pyrazolo[3,4-d]pyrimidin-4-one] | – | > 30 µM | – | 98%
Cc1cc(C2CC2)cc(C)c1-n1cc2c(=O)[nH]c(O[C@@H]3CCOC3)nc2n1 [Example 293, 2-(4-cyclopropyl-2,6-dimethylphenyl)-6-{[(3R)-oxolan-3-yl]oxy}-2,5-dihydro-4H-pyrazolo[3,4-d]pyrimidin-4-one] | – | > 30 µM | – | 99%
COCCOc1nc2nn(-c3c(C)cc(C4(F)CC4)cc3C)cc2c(=O)[nH]1 [Example 246, 2-[4-(1-fluorocyclopropyl)-2,6-dimethylphenyl]-6-(2-methoxyethoxy)-2,5-dihydro-4H-pyrazolo[3,4-d]pyrimidin-4-one] | – | > 30 µM | – | 101%
CCOc1nc2nn(-c3c(C)cc(C)cc3C)cc2c(=O)[nH]1 [Example 106, 6-ethoxy-2-(2,4,6-trimethylphenyl)-2,5-dihydro-4H-pyrazolo[3,4-d]pyrimidin-4-one] | 97% | > 30 µM | – | –
Cc1ccc(-n2cc3c(=O)[nH]c(OCC(C)O)nc3n2)c(C)c1 (racemic) [Example 89, 2-(2,4-dimethylphenyl)-6-(2-hydroxypropoxy)-2,5-dihydro-4H-pyrazolo[3,4-d]pyrimidin-4-one] | 79% | > 30 µM | – | –
CCOc1nc2nn(-c3c(C(F)(F)F)cc(C4CC4)nc3C)cc2c(=O)[nH]1 [Example 269, 2-[6-cyclopropyl-2-methyl-4-(trifluoromethyl)pyridin-3-yl]-6-ethoxy-2,5-dihydro-4H-pyrazolo[3,4-d]pyrimidin-4-one] | – | > 30 µM | – | 100%
CCOc1cc(F)c(-n2cc3c(=O)[nH]c(OCC)nc3n2)c(Br)c1 [Example 158, 2-(2-bromo-4-ethoxy-6-fluorophenyl)-6-ethoxy-2,5-dihydro-4H-pyrazolo [3,4-d]pyrimidin-4-one] | 99% | > 30 µM | – | –
CCOc1nc2nn(-c3c(C)cc(Br)cc3-n3cccn3)cc2c(=O)[nH]1 [Example 144, 2-[4-bromo-2-methyl-6-(1H-pyrazol-1-yl)phenyl]-6-ethoxy-2,5-dihydro-4H-pyrazolo[3,4-d]pyrimidin-4-one] | 96% | > 30 µM | – | –
Cc1ccc(-n2cc3c(=O)[nH]c(OC4CC5(COC5)C4)nc3n2)c(C)c1 [Example 199, 2-(2,4-dimethylphenyl)-6-[(2-oxaspiro[3.3]heptan-6-yl)oxy]-2,5-dihydro-4H-pyrazolo[3,4-d]pyrimidin-4-one] | 52% | > 30 µM | – | –
COc1nc2nn(-c3c(C)cc(C4CC4)cc3CC(F)(F)F)cc2c(=O)[nH]1 [Example 230, 2-[4-cyclopropyl-2-methyl-6-(2,2,2-trifluoroethyl)phenyl]-6-methoxy-2,5-dihydro-4H-pyrazolo[3,4-d]pyrimidin-4-one] | – | > 30 µM | – | 93%
Cc1cc(C)c(-n2cc3c(=O)[nH]c(C4CCCCO4)nc3n2)c(O)c1C (stereo not drawn) [Example 81, 2-(2-hydroxy-3,4,6-trimethylphenyl)-6-(oxan-2-yl)-2,5-dihydro-4H-pyrazolo[3,4-d]pyrimidin-4-one] | 97% | > 30 µM | – | –
COCCn1ccc(-c2nc3nn(-c4c(C)cc(C5CC5)cc4C)cc3c(=O)[nH]2)n1 [Example 278, 2-(4-cyclopropyl-2,6-dimethylphenyl)-6-[1-(2-methoxyethyl)-1H-pyrazol-3-yl]-2,5-dihydro-4H-pyrazolo[3,4-d]pyrimidin-4-one] | – | > 30 µM | – | 95%
COCc1nc2nn(-c3c(C)ccc(C)c3O)cc2c(=O)[nH]1 [Example 53, 2-(2-hydroxy-3,6-dimethylphenyl)-6-(methoxymethyl)-2,5-dihydro-4H-pyrazolo[3,4-d]pyrimidin-4-one] | 95% | > 30 µM | – | –
COCCOc1nc2nn(-c3c(C)cc(C4CC4)cc3CC(F)(F)F)cc2c(=O)[nH]1 [Example 231, 2-[4-cyclopropyl-2-methyl-6-(2,2,2-trifluoroethyl)phenyl]-6-(2-methoxyethoxy)-2,5-dihydro-4H-pyrazolo[3,4-d]pyrimidin-4-one] | – | > 30 µM | – | 90%
Cc1nc(-c2nc3nn(-c4c(F)cc(C5CC5)cc4C(F)F)cc3c(=O)[nH]2)co1 [Example 298, 2-[4-cyclopropyl-2-(difluoromethyl)-6-fluorophenyl]-6-(2-methyl-1,3-oxazol-4-yl)-2,5-dihydro-4H-pyrazolo[3,4-d]pyrimidin-4-one] | – | > 30 µM | – | 99%
Cc1cc(C2CC2)cc(C)c1-n1cc2c(=O)[nH]c(C3CC3)nc2n1 [Example 167, 6-cyclopropyl-2-(4-cyclopropyl-2,6-dimethylphenyl)-2,5-dihydro-4H-pyrazolo[3,4-d]pyrimidin-4-one] | 98% | > 30 µM | – | –
CCOc1nc2nn(-c3c(F)cc(C)cc3C(F)(F)F)cc2c(=O)[nH]1 [Example 73, 6-ethoxy-2-[2-fluoro-4-methyl-6-(trifluoromethyl)phenyl]-2,5-dihydro-4H-pyrazolo[3,4-d]pyrimidin-4-one] | 97% | > 30 µM | – | –
CCOc1nc2nn(-c3c(C)cc(C4CC4)cc3C(F)F)cc2c(=O)[nH]1 [Example 216, 2-[4-cyclopropyl-2-(difluoromethyl)-6-methylphenyl]-6-ethoxy-2,5-dihydro-4H-pyrazo lo[3,4-d]pyrimidin-4-one] | 104% | > 30 µM | – | –
CCOc1nc2nn(-c3c(F)cc(C)cc3C3CC3(F)F)cc2c(=O)[nH]1 (stereo not drawn) [Example 79, 2-[2-(2,2-difluorocyclopropyl)-6-fluoro-4-methylphenyl]-6-ethoxy-2,5-dihydro-4H-pyrazolo[3,4-d]pyrimidin-4-one] | 95% | > 30 µM | – | –
Cc1cc(C)c(-n2cc3c(=O)[nH]c(-c4cccn(C)c4=O)nc3n2)c(O)c1 [Example 66, 2-(2-hydroxy-4,6-dimethylphenyl)-6-(1-methyl-2-oxo-1,2-dihydropyridin-3-yl)-2,5-dihydro-4H-pyrazolo[3,4-d]pyrimidin-4-one] | 97% | > 30 µM | – | –
